Experimental data as given in patent publication US20100010034A1, “CRTH2 ANTAGONISTS” (priority 2006, published 2010).

Key:
[1] = rats, exogenously applied agonist (Shirashi et al 2005); cited from earlier work
[2] = biological target: T1, CRTH2 receptor (Homo sapiens, UniProt Q9Y5Y4); experiment: CRTH2 Radioligand Binding assay ([3H]-PGD2 displacement, SPA); parameters: expressed in transfected cells; host or cells: HEK cell membranes; settings: HEK cell membranes expressing the CRTH2 receptor, 1 nM [3H]-PGD2; Ki from IC50 by Cheng-Prusoff
T1 sequence (Q9Y5Y4 1-395): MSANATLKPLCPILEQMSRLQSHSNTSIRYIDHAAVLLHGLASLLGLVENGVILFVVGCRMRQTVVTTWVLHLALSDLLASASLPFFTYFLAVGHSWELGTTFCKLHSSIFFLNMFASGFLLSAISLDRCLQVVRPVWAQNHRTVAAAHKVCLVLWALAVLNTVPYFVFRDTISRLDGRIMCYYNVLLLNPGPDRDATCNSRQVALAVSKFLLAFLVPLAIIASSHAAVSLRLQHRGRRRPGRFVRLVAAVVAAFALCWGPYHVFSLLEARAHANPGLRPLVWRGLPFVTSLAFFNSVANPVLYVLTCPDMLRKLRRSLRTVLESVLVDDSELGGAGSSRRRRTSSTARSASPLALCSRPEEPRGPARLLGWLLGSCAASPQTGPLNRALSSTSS
Method: Radioligand Binding Assay
The receptor binding assay is performed in a final volume of 200 μL binding buffer [10 mM BES (pH 7.4), 1 mM EDTA, 10 mM manganese chloride, 0.01% BSA] and 1 nM [^3H]-PGD2 (Amersham Biosciences UK Ltd). Ligands are added in assay buffer containing a constant amount of DMSO (1% by volume). Total binding is determined using 1% by volume of DMSO in assay buffer and non-specific binding is determined using 10 μM of unlabeled PGD2 (Sigma). Human embryonic kidney (HEK) cell membranes (3.5 μg) expressing the CRTH2 receptor are incubated with 1.5 mg wheatgerm agglutinin SPA beads and 1 nM [^3H]-PGD2 (Amersham Biosciences UK Ltd) and the mixture incubated for 3 hours at room temperature. Bound [^3H]-PGD2 is detected using a Microbeta TRILUX liquid scintillation counter (Perkin Elmer). Compound IC50 value is determined using a 6-point dose response curve in duplicate with a semi-log compound dilution series. IC50 calculations are performed using Excel and XLfit (Microsoft), and this value is used to determine a Ki value for the test compound using the Cheng-Prusoff equation.

[3] = biological target: T1, CRTH2 receptor; experiment: Calcium mobilisation (flux) functional assay; format: cell-based; parameters: expressed in transfected cells; settings: CHO-K1 cells co-expressing CRTH2 receptor and Gα16; PGD2 agonist at EC80
Method: Calcium Mobilisation (Flux) Assay
Stable CHO-K1 cells co-expressing the CRTH2 receptor and the G-protein Gα16 are seeded (40,000 cells per well in a plating volume of 75 μL in F-12 Hams supplemented with 1% foetal bovine serum) into collagen-coated 96-well plates 24 hours prior to the assay. The cells are then loaded with a fluorescence-imaging plate reader (FLIPR) calcium kit dye (Calcium 3 kit, Molecular Devices Ltd) containing 5 mM final concentration of probenecid and incubated at 37° C. for 1 hour in a 5 % CO2 atmosphere. The fluorescence emission caused by intracellular calcium mobilization elicited by the PGD2 at the CRTH2 receptor is determined with a FLEXstation benchtop scanning and integrated fluid transfer workstation (Molecular Devices Ltd). To detect antagonists and determine compound IC50, compounds are pre-incubated at varying concentrations with the loaded cells for 15 minutes at 37° C., 5 % CO2, prior to the addition of the agonist at its EC80 value. Compounds and agonist are added in Hanks balanced salt solution containing 20 mM HEPES and 0.1% BSA). The fractional response values for each well are calculated by subtracting the basal response from the peak response. Results are calculated as the mean of triplicate wells using Excel and XLfit (Microsoft).

Ki [2]	IC50 [3]	Structure (SMILES)	pulmonary eosinophilia [1]
		O=C(O)CCCCCCC1C(=O)NC(=O)N1CCC(O)C1CCCCC1 (stereo not drawn) [BW 245C]	no effect
27 nM		Cc1c(CC(=O)O)c2ccc(F)cn2c1Sc1ccc(Cl)cc1Cl [Example 1, [3-(2,4dichlorophenylsulfanyl)-6-fluoro-2-methylindolizin-1-yl]acetic acid]	
0.2 nM	6.6 nM	Cc1c(CC(=O)O)c2ccc(F)cn2c1Sc1ccc(S(C)(=O)=O)cc1F [Example 2, [6-fluoro-3-(2-fluoro-4-methanesulfonylphenylsulfanyl)-2-methylindolizin-1-yl]acetic acid]	
0.9 nM	11 nM	Cc1c(CC(=O)O)c2ccc(F)cn2c1Sc1ccc(S(C)(=O)=O)cc1C(F)(F)F [Example 3, [6-fluoro-3-(4-methanesulfonyl-2-trifluoromethylphenylsulfanyl)-2-methylindolizin-1-yl]acetic acid]	
29 nM		Cc1c([C@@H](C)C(=O)O)c2ccc(F)cn2c1Sc1ccc(S(C)(=O)=O)cc1 [Example 4, (R)-2-[6-fluoro-3-(4-methanesulfonylphenylsulfanyl)-2-methylindolizin-1-yl]propionic acid]	
0.8 nM	8.9 nM	CCS(=O)(=O)c1ccc(Sc2c(C)c(CC(=O)O)c3ccc(F)cn23)cc1 [Example 5, [3-(4-ethanesulfonylphenylsulfanyl)+fluoro-2-methylindolizin-1-yl]acetic acid]	
57 nM		Cc1c([C@H](C)C(=O)O)c2ccc(F)cn2c1Sc1ccc(S(C)(=O)=O)cc1 [Example 6, (S)-2-[6-fluoro-3-(4-methanesulfonylphenylsulfanyl)-2-methylindolizin-1-yl]propionic acid]	
47 nM		CCS(=O)(=O)Nc1ccc(S(=O)(=O)c2c(C)c(CC(=O)O)c3ccc(F)cn23)cc1 [Example 7]	
0.4 nM		Cc1c(CC(=O)O)c2cc(Cl)c(F)cn2c1Sc1ccc(S(C)(=O)=O)cc1 [Example 8, [7-chloro-6-fluoro-3-(4-methanesulfonylphenylsulfanyl)-2-methylindolizin-1-yl]acetic acid]	
2.9 nM		Cc1c(CC(=O)O)c2cc(C#N)ccn2c1Sc1ccc(S(C)(=O)=O)cc1Cl [Example 9, [3-(2-chloro-4-methanesulfonylphenylsulfanyl)-7-cyano-2-methylindolizin-1-yl]acetic acid]	
1.7 nM		Cc1c(CC(=O)O)c2ccc(C#N)cn2c1Cc1ccc(S(C)(=O)=O)cc1 [Example 10, [6-cyano-3-(4-methanesulfonylbenzyl)-2-methylindolizin-1-yl]acetic acid]	
26 nM		Cc1c(CC(=O)O)c2cc(C#N)ccn2c1Cc1ccc(Cl)cc1 [Example 11, [3-(4-chlorobenzyl)-7-cyano-2-methylindolizin-1-yl]acetic acid]	
7.2 nM		Cc1c(CC(=O)O)c2ccc(C#N)cn2c1Cc1ccc2cc(F)ccc2n1 [Example 12, [6-cyano-3-(6-fluoroquinolin-2-ylmethyl)-2-methylindolizin-1-yl]acetic acid]	
44 nM		COc1ccc(Sc2c(C)c(CC(=O)O)c3ccc(F)cn23)cc1 [Example 13, [6-fluoro-3-(4-methoxyphenylsulfanyl)-2-methylindolizin-1-yl]acetic acid]	
23 nM		COc1ccc(Sc2c(C)c(CC(=O)O)c3cc(Cl)c(F)cn23)cc1 [Example 14, [7-chloro-6-fluoro-3-(4-methoxyphenylsulfanyl)-2-methylindolizin-1-yl]acetic acid]	
0.6 nM	22 nM	Cc1c(CC(=O)O)c2ccc(F)cn2c1Sc1ccc(S(=O)(=O)NC2CC2)cc1 [Example 16, [3-(4-cyclopropylsulfamoylphenylsulfanyl)-6-fluoro-2-methylindolizin-1-yl]acetic acid]	
		O=C(O)CCC/C=C\C[C@@H]1[C@@H](/C=C/[C@@H](O)COc2ccc(I)cc2)[C@H]2CC[C@@H]1O2 [I-BOP]	no effect
